Measured values reported in US20230312528A1, “2-OXO-IMIDAZOLIDINE-4-CARBOXAMIDES AS NAV1.8 INHIBITORS” (Merck Sharp & Dohme LLC, priority 2020, published 2023).

The compounds below were run against human NaV1.8 (Homo sapiens (Human), UniProt Q9Y5Y9) (assay: Nav1.8 Qube automated patch-clamp assay). Settings: human NaV1.8 stably expressed in HEK 293 cells; automated 384-well patch-clamp; resting or inactivated state not specified.
human NaV1.8, sequence (Q9Y5Y9 whole entry): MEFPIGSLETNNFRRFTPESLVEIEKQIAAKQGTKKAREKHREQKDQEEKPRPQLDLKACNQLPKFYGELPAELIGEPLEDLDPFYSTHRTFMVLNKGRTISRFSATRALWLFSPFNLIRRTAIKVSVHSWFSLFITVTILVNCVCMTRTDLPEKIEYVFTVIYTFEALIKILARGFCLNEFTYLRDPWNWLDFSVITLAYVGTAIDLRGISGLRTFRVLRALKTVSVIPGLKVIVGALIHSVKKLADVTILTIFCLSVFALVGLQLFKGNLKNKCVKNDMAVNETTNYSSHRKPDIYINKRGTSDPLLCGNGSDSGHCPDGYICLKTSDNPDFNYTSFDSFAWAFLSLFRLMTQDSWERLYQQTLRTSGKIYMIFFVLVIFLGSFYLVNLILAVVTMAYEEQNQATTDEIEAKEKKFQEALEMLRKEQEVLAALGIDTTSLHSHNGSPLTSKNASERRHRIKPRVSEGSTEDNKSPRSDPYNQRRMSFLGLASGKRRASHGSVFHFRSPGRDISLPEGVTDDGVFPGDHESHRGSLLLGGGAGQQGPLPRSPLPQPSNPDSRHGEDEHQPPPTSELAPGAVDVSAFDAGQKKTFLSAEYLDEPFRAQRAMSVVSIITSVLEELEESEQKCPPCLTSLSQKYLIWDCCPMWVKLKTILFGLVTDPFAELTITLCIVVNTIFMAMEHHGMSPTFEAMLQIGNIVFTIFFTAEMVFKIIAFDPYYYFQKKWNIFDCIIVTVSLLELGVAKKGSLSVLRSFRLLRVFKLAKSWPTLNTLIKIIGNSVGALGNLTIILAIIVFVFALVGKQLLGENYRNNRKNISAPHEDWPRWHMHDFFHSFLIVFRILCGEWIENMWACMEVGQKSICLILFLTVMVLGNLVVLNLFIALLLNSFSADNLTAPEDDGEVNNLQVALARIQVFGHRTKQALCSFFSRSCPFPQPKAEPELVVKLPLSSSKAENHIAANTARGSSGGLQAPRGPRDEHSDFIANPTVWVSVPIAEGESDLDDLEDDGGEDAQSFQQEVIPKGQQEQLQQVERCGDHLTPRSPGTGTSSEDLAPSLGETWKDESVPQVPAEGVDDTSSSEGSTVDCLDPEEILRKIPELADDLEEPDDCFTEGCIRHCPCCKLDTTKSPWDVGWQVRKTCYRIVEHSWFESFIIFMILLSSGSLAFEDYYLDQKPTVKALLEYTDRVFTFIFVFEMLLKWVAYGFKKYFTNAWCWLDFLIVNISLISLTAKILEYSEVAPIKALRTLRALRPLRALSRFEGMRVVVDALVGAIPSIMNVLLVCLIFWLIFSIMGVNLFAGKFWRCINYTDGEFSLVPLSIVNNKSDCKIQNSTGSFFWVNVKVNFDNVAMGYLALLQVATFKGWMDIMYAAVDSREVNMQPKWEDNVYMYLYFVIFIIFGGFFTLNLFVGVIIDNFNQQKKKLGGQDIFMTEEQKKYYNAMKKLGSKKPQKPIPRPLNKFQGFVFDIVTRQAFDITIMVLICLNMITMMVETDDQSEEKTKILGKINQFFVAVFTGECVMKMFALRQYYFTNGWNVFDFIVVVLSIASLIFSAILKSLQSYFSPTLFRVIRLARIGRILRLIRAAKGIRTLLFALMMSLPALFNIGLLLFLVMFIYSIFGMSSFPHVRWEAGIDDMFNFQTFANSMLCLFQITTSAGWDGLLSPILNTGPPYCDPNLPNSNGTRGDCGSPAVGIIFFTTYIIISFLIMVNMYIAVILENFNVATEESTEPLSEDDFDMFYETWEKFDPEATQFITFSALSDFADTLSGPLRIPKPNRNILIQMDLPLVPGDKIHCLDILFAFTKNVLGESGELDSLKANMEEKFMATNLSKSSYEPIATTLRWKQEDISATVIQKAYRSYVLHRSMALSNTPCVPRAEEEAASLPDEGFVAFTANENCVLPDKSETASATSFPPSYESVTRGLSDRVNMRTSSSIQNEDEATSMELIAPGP
Type: cell-based
Method: Compounds were tested on human NaV1.8 and NaV1.5 channels stably expressed in human embryo kidney (HEK) 293 cells. Sodium current measurements on Qube® were conducted as follows: automated 384-well patch-clamp assays on the Qube® platform (Sophion Biosciences) were used to measure the inhibition of sodium flow through human NaV1.8 and NaV1.5 channels. Whole-cell voltage-clamp recordings were performed in QChips® (Sophion Biosciences) at room temperature. NaV1.8 current measurements on Qube® were obtained as follows: NaV1.8 currents were elicited with a 10 second 1 Hertz (Hz) pulse train from a holding potential of −90 millivolts (mV), delivered to the cells once per minute in the control condition (DMSO only) and after compound addition. The 1 hertz pulse train stimulation consisted of ten test pulses to 10 millivolt (mV) for 20 milliseconds (ms), each of which was followed by a 980 millisecond repolarization to −67 millivolts. At the end of the 10 second pulse train stimulation, a 5 second hyperpolarization step to −100 millivolt (mV) was used to recover NaV1.8 from fast inactivation. The peak currents elicited by the 1st and 10th test pulses were used to determine IC50 values for resting inhibition and inactivated state inhibition. NaV1.5 current measurements on Qube® were obtained as follows: NaV1.5 currents were elicited with a 20 second 3 Hertz pulse train in the control condition (DMSO only) and after compound addition. The pulse train consisted of sixty 20 millisecond test pulses to 0 millivolt from a holding potential of −80 millivolt (mV). The average peak currents elicited by the last 3 test pulses were used to determine IC50 values for NaV1.5 inhibition.
The following buffers were used for the Qube® recordings: External buffer for NaV1.8 Qube® recording: 150 NaCl, 2 CaCl2, 5 KCl, 1 Mg Cl2, 10 HEPES, 12 Dextrose; External buffer for Qube® NaV1.5 recording: 120 N-Methyl-D-Glucamine, 40 NaCl, 1 KCl, 2.7 CaCl2, 5 HEPES, 0.5 MgCl2; and Internal buffer for Qube® recording: 120 CsF, 30 CsCl, 10 EGTA, 5 HEPES, 5 NaF, 2 MgCl2.
For all Qube® experiments offline analysis was used to determine percent inhibition as a function of drug concentration. IC50 values were determined by fitting to the Hill equation.
For O=C1NC[C@@H](C(=O)NC(c2ccc(OC(F)(F)F)nc2)c2ccc(F)c(C(F)(F)F)n2)N1 (single isomer, unassigned) [Example 45A, (S)-N-((R or S)-(5-fluoro-6-(trifluoro-methyl)pyridin-2-yl)(6-(trifluoromethoxy)pyridin-3-yl)methyl)-2-oxoimidazolidine-4-carboxamide], the IC50 was 10 nM.
O=C1NC[C@@H](C(=O)NC(c2ccc(C(F)F)nc2)c2ccc(F)c(Cl)c2F)N1 (single isomer, unassigned) [Example 43, (S)-N-((R or S)-(3-chloro-2,4-difluorophenyl)(6-(difluoromethyl)pyridin-3-yl)methyl)-2-oxoimidazolidine-4-carboxamide] showed an IC50 of 13 nM.
In the case of O=C1NC[C@@H](C(=O)NC(c2ccc(F)c(Cl)c2F)C2COC(C(F)(F)F)C2)N1 (single isomer, unassigned) [Example 79G, (S)-N-((R or S)-(3-chloro-2,4-difluoro-phenyl)((cis or trans)-5-(trifluoromethyl)tetrahydrofuran-3-yl)methyl)-2-oxoimidazolidine-4-carboxamide], the IC50 is reported as 2330 nM.
O=C1NC[C@@H](C(=O)NC(c2ccc(OC(F)(F)F)c(Cl)c2)c2ccnc(C(F)(F)F)n2)N1 (single isomer, unassigned) [Example 49A, (S)-N-((R or S)-3-chloro-4-(trifluoro-methoxy)phenyl)(2-(trifluoromethyl)pyrimidin-4-yl)methyl)-2-oxoimidazolidine-4-carboxamide] gave an IC50 of 7.6 nM.
Work on CC1(C)CC(C(NC(=O)[C@@H]2CNC(=O)N2)c2ccc(F)c(Cl)c2)C1C(F)(F)F (stereo partly drawn) [Example 68, (4S)-N-((3-chloro-4-fluorophenyl)(3,3-dimethyl-2-(trifluoromethyl)cyclobutyl)methyl)-2-oxoimidazolidine-4-carboxamide] yielded an IC50 of 604 nM.
CN1C(=O)NCC1C(=O)NC(c1ccc(Cl)cc1)c1ccc(Cl)cc1 (single isomer, unassigned) [Example 2A, (R or S)—N-(bis(4-chlorophenyl)methyl)-3-methyl-2-oxoimidazolidine-4-carboxamide] showed an IC50 of 34 nM.
O=C1NC[C@@H](C(=O)NC(c2ccc(F)c(Cl)c2)c2ccc(F)c(OCC(F)(F)F)n2)N1 (single isomer, unassigned) [Example 11B, (4S)-N-{((R or S)-3-chloro-4-fluoro-phenyl)[5-fluoro-6-(2,2,2-trifluoro-ethoxy)pyridin-2-yl]methyl}-2-oxoimidazolidine-4-carboxamide] was tested, and the IC50 was 3.9 nM.
In the case of Cc1nc(C(F)(F)F)sc1C(NC(=O)[C@@H]1CNC(=O)N1)c1ccc(Cl)cc1 (stereo partly drawn) [Example 76, (4S)-N-((4-chlorophenyl)(4-methyl-2-(trifluoro-methyl)thiazol-5-yl)methyl)-2-oxoimidazolidine-4-carboxamide], the IC50 is reported as 35 nM.
In the case of O=C1NC[C@@H](C(=O)NC(c2ccc(F)c(Cl)c2)c2cc(C(F)(F)F)[nH]n2)N1 (single isomer, unassigned) [Example 4B, (S)—N—((R or S)-(3-chloro-4-fluorophenyl)(5-(trifluoromethyl)-1H-pyrazol-3-yl)methyl)-2-oxoimidazolidine-4-carboxamide], the IC50 is reported as 6.2 nM.
O=C1NC[C@@H](C(=O)NC(CC2CCCOC2)c2ccc(F)c(Cl)c2F)N1 (single isomer, unassigned) [Example 26A, (S)-N-((R or S)-1-(3-chloro-2,4-difluorophenyl)-2-((R or S)-tetrahydro-2H-pyran-3-yl)ethyl)-2-oxoimidazolidine-4-carboxamide] was tested, and the IC50 was 413 nM.
For O=C1NC[C@@H](C(=O)NC(c2ccc(F)c(Cl)c2F)C2COC(C(F)(F)F)C2)N1 (single isomer, unassigned) [Example 79D, (S)-N-((R or S)-(3-chloro-2,4-difluoro-phenyl)((cis or trans)-5-(trifluoromethyl)tetrahydrofuran-3-yl)methyl)-2-oxoimidazolidine-4-carboxamide], the IC50 was 3680 nM.
O=C1NC[C@@H](C(=O)NC(c2ccc(F)c(Cl)c2)c2cc3cc(Cl)ccc3o2)N1 (single isomer, unassigned) [Example 73B, (S)-N-((R or S)-(3-chloro-4-fluorophenyl)(5-chlorobenzofuran-2-yl)methyl)-2-oxoimidazolidine-4-carboxamide] was tested, and the IC50 was 0.2 nM.
Work on O=C1NC[C@@H](C(=O)NC(c2ccc(F)c(Cl)c2)c2nc3ccccc3o2)N1 (single isomer, unassigned) [Example 88, (S)-N-((R or S)-benzo[d]oxazol-2-yl(3-chloro-4-fluoro-phenyl)methyl)-2-oxoimidazolidine-4-carboxamide] yielded an IC50 of 8.6 nM.
With O=C1NC[C@@H](C(=O)NC(c2cnc(C(F)(F)F)c(Cl)c2)c2ccc(Cl)c(C(F)F)n2)N1 (single isomer, unassigned) [Example 3A, (S)—N—((R or S)-(5-chloro-6-(difluoromethyl)pyridin-2-yl)(5-chloro-6-(trifluoromethyl)pyridin-3-yl)methyl)-2-oxoimidazolidine-4-carboxamide] the IC50 was 9.7 nM.
For CS(=O)(=O)c1ccc(C(NC(=O)[C@@H]2CNC(=O)N2)c2ccc(F)c(Cl)c2)cc1 (single isomer, unassigned) [Example 85B, (S)-N-((R or S)-(3-chloro-4-fluorophenyl)(4-(methylsulfonyl)phenyl)methyl)-2-oxoimidazolidine-4-carboxamide], the IC50 was 1280 nM.
Compound O=C1NC[C@@H](C(=O)NC(c2cnc(C(F)(F)F)c(Cl)c2)c2ccc(Cl)c(C(F)(F)F)n2)N1 (single isomer, unassigned) [Example 56B, (S)-N-((R or S)-(5-chloro-6-(trifluoromethyl)pyridin-2-yl)(5-chloro-6-(trifluoromethyl)pyridin-3-yl)methyl)-2-oxoimidazolidine-4-carboxamide] has an IC50 of 4.5 nM.
O=C1NC[C@@H](C(=O)NC(c2ccc(Cl)cc2)c2ccc3cn[nH]c3c2)N1 (single isomer, unassigned) [Example 82A, (S)-N-((R or S)-(4-chlorophenyl)(1H-indazol-6-yl)methyl)-2-oxoimidazolidine-4-carboxamide] gave an IC50 of 255 nM.
For O=C1NC[C@@H](C(=O)NC(c2ccc(F)c(Cl)c2)C2C3CN(CC(F)(F)F)CC32)N1 (single isomer, unassigned) [Example 77A, (4S)-N-((1(R or S))-(3-chloro-4-fluorophenyl)(3-(2,2,2-trifluoroethyl)-3-azabicyclo[3.1.0]hexan-6-yl)methyl)-2-oxoimidazolidine-4-carboxamide], the IC50 was 26 nM.
With O=C1NC[C@@H](C(=O)NC(c2ccc(F)c(Cl)c2)C2Cc3c(Cl)cccc32)N1 (single isomer, unassigned) [Example 70A, (S)-N-((R or S)-(3-chloro-4-fluoro-phenyl)((R or S)-2-chlorobicyclo[4.2.0]-octa-1(6),2,4-trien-7-yl)methyl)-2-oxoimidazolidine-4-carboxamide] the IC50 was 26 nM.
N#Cc1cc(C(NC(=O)[C@@H]2CNC(=O)N2)c2ccc(OC(F)(F)F)cc2)ccc1Cl (single isomer, unassigned) [Example 57B, (S)-N-((R or S)-(4-chloro-3-cyanophenyl)(4-(trifluoromethoxy)phenyl)methyl)-2-oxoimidazolidine-4-carboxamide] gave an IC50 of 2.4 nM.
CC(N1CC(C)(C(NC(=O)[C@@H]2CNC(=O)N2)c2ccc(F)c(Cl)c2F)C1)C(F)(F)F (single isomer, unassigned) [Example 65C, (S)—N—((R or S)-(3-chloro-2,4-difluorophenyl)(3-methyl-1-((R or S)-1,1,1-trifluoropropan-2-yl)azetidin-3-yl)methyl)-2-oxoimidazolidine-4-carboxamide] was tested, and the IC50 was 309 nM.
With N#Cc1ccc(C(NC(=O)[C@@H]2CNC(=O)N2)c2ccc(F)c(Cl)c2)nc1 (stereo partly drawn) [Example 86, (4S)-N-[(3-chloro-4-fluorophenyl)(5-cyanopyridin-2-yl)methyl]-2-oxoimidazolidine-4-carboxamide] the IC50 was 320 nM.
With O=C1NC[C@@H](C(=O)NC(c2ccc(Cl)cc2)c2ncc(Cl)c(C(F)(F)F)n2)N1 (stereo partly drawn) [Example 6, (S)—N-((5-chloro-4-(trifluoromethyl)pyrimidin-2-yl)(4-chlorophenyl)methyl)-2-oxoimidazolidine-4-carboxamide] the IC50 was 28 nM.
CN1CCC(C(NC(=O)[C@@H]2CNC(=O)N2)c2ccc(F)c(Cl)c2F)CC1C(F)(F)F (single isomer, unassigned) [Example 78A, (S)-N-((R or S)-(3-chloro-2,4-difluoro-phenyl)((cis or trans)-1-methyl-2-(trifluoro-methyl)piperidin-4-yl)methyl)-2-oxoimidazolidine-4-carboxamide] was tested, and the IC50 was 4070 nM.
